Assay [1] concerns the target T1, 64 kDa MMP-2 (Homo sapiens, UniProt P08253).
T1 sequence (P08253 110-660): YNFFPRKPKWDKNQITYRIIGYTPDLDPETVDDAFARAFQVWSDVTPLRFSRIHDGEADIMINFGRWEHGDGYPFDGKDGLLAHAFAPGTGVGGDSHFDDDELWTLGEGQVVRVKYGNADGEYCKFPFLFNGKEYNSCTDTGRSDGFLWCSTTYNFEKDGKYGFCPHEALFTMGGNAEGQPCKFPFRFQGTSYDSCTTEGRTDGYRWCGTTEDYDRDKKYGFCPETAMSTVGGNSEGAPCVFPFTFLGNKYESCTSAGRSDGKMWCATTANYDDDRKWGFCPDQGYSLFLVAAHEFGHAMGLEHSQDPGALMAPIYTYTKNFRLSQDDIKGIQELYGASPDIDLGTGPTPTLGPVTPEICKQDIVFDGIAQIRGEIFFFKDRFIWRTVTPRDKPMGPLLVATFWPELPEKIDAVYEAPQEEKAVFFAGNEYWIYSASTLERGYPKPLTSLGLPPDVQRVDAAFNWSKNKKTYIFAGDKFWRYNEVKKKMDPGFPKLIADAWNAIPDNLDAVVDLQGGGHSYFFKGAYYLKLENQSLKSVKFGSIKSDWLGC
Description: OmniMMP fluorogenic substrate kinetic assay of MMP-2 activity. It counts as biochemical. Particulars: for IC50: 15 µM substrate; for IC50 values (range in words): substrate degradation assay, 64 kDa MMP-2.

Assay [2] relates to PARP. The following applies: in vitro; cited from earlier work.
In assay [3] the test system is PARP. The following applies: in animal models; cited from earlier work.
The target in assay [4] is T1, 64 kDa MMP-2. The experiment in a line: Gelatinolytic activity of MMP-2 by gelatin zymography. It counts as biochemical.
[5] abbreviates: IC50 ± SD, 1 nM ZnSO4, 50 mM Tris pH 7.6, 37 °C.
The mark [6] stands for this setting: IC50 ± SD, 10 µM ZnSO4, 50 mM Tris pH 7.6, 10 mM CaCl2, 0.05% Brij-35, 37 °C.
Where [7] appears, read: read-out: IC50 ± SD, 10 µM ZnSO4, 50 mM Tris pH 7.6, 10 mM CaCl2, 0.05% Brij-35, 37 °C.

Read-outs that look alike come from different tables or passages of the source. Some results are limits rather than exact numbers.

In the case of `NC(=O)c1cccc(N)c1` [3-AB, 3-Aminobenzamide], the values for the IC50 against 64 kDa MMP-2 [1] (setting [5]) and against 64 kDa MMP-2 [1] (setting [6]) were 1000 ± 200 µM and 1760 ± 220 µM, respectively. Also, the “IC50 values (range in words)” value on 64 kDa MMP-2 [1] is listed as “millimolar range”. The “potency for PARP inhibition” value in the assay on PARP [2] was “micromolar range”; in the assay on PARP [3] it was “millimolar range”.

Regarding `Nc1cccc2c(=O)[nH]ccc12` [5-AIQ, 5-aminoisoquinolinone], the IC50 at 64 kDa MMP-2 [1] (setting [7]) was found to be 102 ± 34 µM. For the same compound, the “IC50 values (range in words)” value on 64 kDa MMP-2 [1] is on record as “high micromolar range”.

Regarding `C[C@H]1c2cccc(O)c2C(=O)C2=C(O)[C@]3(O)C(=O)C(C(N)=O)=C(O)[C@@H](N(C)C)[C@@H]3[C@@H](O)[C@@H]21` [Doxycycline, doxycycline], the results for the IC50 at 64 kDa MMP-2 [1] (setting [5]) and against 64 kDa MMP-2 [1] (setting [6]) were 93 ± 12 µM and 86 ± 13 µM, respectively.

Consider `Nc1ncnc2c1ncn2[C@@H]1O[C@H](C(=O)N2CCN(CC(=O)Nc3cccc4c3CNC4=O)CC2)[C@@H](O)[C@H]1O` [EB-47, 1-piperazineacetamide-4-[1-(6-amino-9H-purin-9-yl)-1-deoxy-D-ribofuranuron]-N-(2,3-dihydro-1H-isoindol-4-yl)-1-one], for which the IC50 at 64 kDa MMP-2 [1] (setting [7]) was greater than 3000 µM. Besides, the “IC50 values (range in words)” value against 64 kDa MMP-2 [1] was “millimolar range”.

`CN(C)c1ccc(O)c2c1C[C@H]1C[C@H]3[C@H](N(C)C)C(O)=C(C(N)=O)C(=O)[C@@]3(O)C(O)=C1C2=O` [Minocycline, minocycline]: at 64 kDa MMP-2 [1] (setting [6]), 57 ± 6 µM corresponded to half-maximal inhibition (IC50).

For the compound `CN(C)CC(=O)Nc1ccc2[nH]c(=O)c3ccccc3c2c1` [PJ-34, 2-(dimethylamino)-N-(5,6-dihydro-6-oxophenanthridin-2-yl)acetamide], the IC50 is 27 ± 10 µM at 64 kDa MMP-2 [1] (setting [5]), 56 ± 14 µM against 64 kDa MMP-2 [1] (setting [6]) and 9200 µM on 64 kDa MMP-2 [4]. Moreover, the “IC50 values (range in words)” value at 64 kDa MMP-2 [1] is recorded as “high micromolar range”.

As for `c1cnc2c(c1)ccc1cccnc12` [o-Phenanthroline, o-phenanthroline], the midpoint of inhibition on 64 kDa MMP-2 [1] (setting [5]), the IC50, lay at 116 ± 9 µM.

Source of the values: PMC2756481 (Biochemical and biophysical research communications, 2009).
